# Experiments:
# [1] = test system: hTERT promoter relative to CMV promoter; experiment: Specificity check: hTERT promoter relative to CMV promoter driven SEAP in HepG2 cells; type: cell-based, human; conditions: for Average phTERT/pCMV ratio: 20 μg/ml, 16 hours, ± SE, n = 3; for specificity in activating hTERT expression: judged from average phTERT/pCMV ratio
# Method: (§1) “SEAP” stands for secreted alkaline phosphatase enzyme. SEAP was used as a reporter system to monitor the transcriptional activity of hTERT. Here, about 10,000 cells per well were grown in 96-well plates and incubated at 37° C. for 22 hours. Varying types and amounts of natural compounds were added and cells were incubated for another 16 hours. Culture media were collected and heated at 65° C. for 10 mins to inactivate heat labile phosphatases. An equal amount of SEAP buffer (2M diethanolamine, 1 mM MgCl2, and 20 mM L-homoarginine), was added to the media and p-nitrophenyl phosphate was added to a final concentration of 12 mM. Absorbance at 405 nm was taken, and the percentage change in absorbance was calculated.
# (§2) One of the plasmids contains the 5′ upstream hTERT promoter region followed by the reporter gene, the SEAP gene, while the other plasmid contains the CMV promoter region controlling the expression of the SEAP gene.
# (§3) Each plasmid was then individually transfected into HepG2 cells and stable cells lines were established by selection on G418 (1 mg/ml). Stable clones of from each plasmid transfected cell line was established and each clone was propagated and preserved under liquid nitrogen for long term storage prior to use
# (§4) The newly established HepG2-pTERT-SEAP and HepG2-pCMV-SEAP stable cell lines were then used for screening for inhibitors or activators of human telomerase expression.
# HepG2-pCMV-SEAP serves as a positive control to ensure that SEAP is always secreted by cells harbouring this plasmid. It also serves as a specificity control as any small molecules that stimulate or inhibit only telomerase expression identified using the HepG2-pTERT-SEAP cells screening should show little to no increase in SEAP activity.
# HepG2-phTERT-SEAP cells were grown for 22 hours in M199 medium supplemented with 10% FBS. The three compounds (20 μg/ml) specified above were then added and incubated for another 16 hours. After 16 hours, SEAP assay was conducted in accordance to the protocol described by Huang et al. (2003). Concurrently, HepG2-pCMV-SEAP cells were also subjected to the compounds and results were also collected. The results obtained were as shown in Table 1 below which indicate the change in hTERT expression from n=3 independent experiments.
# [2] = test system: hTERT expression (hTERT promoter); experiment: HepG2-phTERT-SEAP reporter assay (SEAP activity as measure of hTERT expression); type: cell-based, human; conditions: for increase in hTERT expression: 16 hours; for average increase in hTERT expression: 20 μg/ml, 16 hours incubation, HepG2-hTERT reporter cell line, n=5 (FIG. 1)
# Method: NPL which consists of a total of 480 different pure natural product compounds.
# as §1
# An increase in SEAP activity detected via the utilization of a substrate, translates to an increase in hTERT expression.
# Cell lines suitable for use in the assay were prepared from ATTC No. HB-8065 Hep G2 (Hepatocellular carcinoma, human). The Hep G2 cell line was isolated from a liver biopsy of a person with a well differentiated hepatocellular carcinoma. These cells are epithelial in morphology. These cells secrete a variety of major plasma proteins e.g., alpha-fetoprotein (alpha fetoprotein); albumin; alpha2 macroglobulin (alpha-2-macroglobulin); alpha1 antitrypsin (alpha-1-antitrypsin); transferrin; alpha1 antichymotrypsin; (alpha-1-antichymotrypsin); haptoglobin; ceruloplasmin; plasminogen; complement (C4); C3 activator; fibrinogen; alpha1 acid glycoprotein (alpha-1 acid glycoprotein); alpha2 HS glycoprotein (alpha-2-HS-glycoprotein); beta lipoprotein (beta-lipoprotein); retinol binding protein (retinol-binding protein). The cells are also responsive to stimulation with human growth hormone. HepG2 cells and its derivatives are commonly used as a model system for studies of liver metabolism and toxicity of xenobiotics, the detection of cytoprotective, anti (environmental and dietary) genotoxic and cogenotoxic agents, understanding hepatocarcinogenesis, and for drug targeting studies. HepG2 cells are also employed in trials with bio-artificial liver devices.
# as §2, §3, §4
# An increase in SEAP activity indicates an increase in hTERT expression and a decrease in SEAP activity indicates a decrease in hTERT expression.
# HepG2-phTERT-SEAP cells were grown for 22 hours in M199 medium supplemented with 10% FBS. The three compounds, 7E (P1), 8H(P1) and 11E(P2) (20 μg/ml) specified above were added and incubated for another 16 hours. After 16 hours, SEAP assay was conducted in accordance to the protocol described by Huang et al. (2003).
# [3] = 1.25ug/ml, above untreated cells
# [4] = 20 ug/ml, vs 1% DMSO control wells
# [5] = 100 ug/ml, vs 1% DMSO control wells
SMILES,Average phTERT/pCMV ratio [1],specificity in activating hTERT expression [1],"increase in hTERT expression [2, 3] [%]",average increase in hTERT expression [2] [%],"increase in hTERT expression [2, 4] [%]","increase in hTERT expression [2, 5] [%]"
"O=c1cc(-c2ccc(O)c(O)c2)oc2cc(O[C@@H]3O[C@H](CO)[C@@H](O)[C@H](O)[C@H]3O)cc(O)c12 [7E, Plate 1, 2-(3,4-dihydroxyphenyl)-5-hydroxy-7-[3,4,5-trihydroxy-6-(hydroxymethyl)(2H-3,4,5,6-tetrahydropyran-2-yloxy)]chromen-4-one]",1.08 ± 0.04,only mildly specific,12.3,29.42,34.7,167.0
"COc1cc2ccc(=O)oc2c(O)c1OCC=C(C)C [8H, Plate 1, 8-hydroxy-6-methoxy-7-(3-methylbut-2-enyloxy) chromen-2-one]",2.16 ± 0.14,highly specific,8.1,49.76,39.5,139.5
"COc1cc2ccc(=O)oc2cc1O [11E, Plate 2, 7-hydroxy-6-methoxychromen-2-one]",2.01 ± 0.01,highly specific,4.3,57.99,54.2,225.8
"Cc1ccc(C(=O)Nc2ccc(S(=O)(=O)O)c3cc(S(=O)(=O)O)cc(S(=O)(=O)O)c23)cc1NC(=O)c1cccc(NC(=O)Nc2cccc(C(=O)Nc3cc(C(=O)Nc4ccc(S(=O)(=O)O)c5cc(S(=O)(=O)O)cc(S(=O)(=O)O)c45)ccc3C)c2)c1 [Suramin, reference compound]",1.16 ± 0.11,–,–,–,–,–
